Experimental data taken from patent publication US10308639B2, “Phosphatidylinositol 3-kinase inhibitors” (Gilead Sciences, Inc., priority 2014, dated 2019).
Read-outs that look alike come from different tables or passages of the source.

Legend:
Type in all cases: biochemical
PI3Kβ = molecular target: T1, PI3Kβ (Homo sapiens, UniProt P42338); assay: TR-FRET enzymatic activity assay, PI3Kβ
T1 construct: made in house

PI3Kδ = molecular target: T2, PI3Kδ (Homo sapiens, UniProt O00329); assay: TR-FRET enzymatic activity assay, PI3Kδ
T2 construct: made in house

PI3Kγ = molecular target: T3, PI3Kγ (Homo sapiens, UniProt P48736); assay: TR-FRET enzymatic activity assay, PI3Kγ; conditions: read-out: PI3Kγ IC50
T3 construct: made in house
Method in brief: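 Enzymatic activity against the PI3K isoforms was measured using a time-resolved fluorescence resonance energy transfer (TR-FRET) assay.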

[1] = Table 2, TR-FRET, 2x Km ATP, 30 minutes at 25° C.

T2 sequence (O00329 whole entry): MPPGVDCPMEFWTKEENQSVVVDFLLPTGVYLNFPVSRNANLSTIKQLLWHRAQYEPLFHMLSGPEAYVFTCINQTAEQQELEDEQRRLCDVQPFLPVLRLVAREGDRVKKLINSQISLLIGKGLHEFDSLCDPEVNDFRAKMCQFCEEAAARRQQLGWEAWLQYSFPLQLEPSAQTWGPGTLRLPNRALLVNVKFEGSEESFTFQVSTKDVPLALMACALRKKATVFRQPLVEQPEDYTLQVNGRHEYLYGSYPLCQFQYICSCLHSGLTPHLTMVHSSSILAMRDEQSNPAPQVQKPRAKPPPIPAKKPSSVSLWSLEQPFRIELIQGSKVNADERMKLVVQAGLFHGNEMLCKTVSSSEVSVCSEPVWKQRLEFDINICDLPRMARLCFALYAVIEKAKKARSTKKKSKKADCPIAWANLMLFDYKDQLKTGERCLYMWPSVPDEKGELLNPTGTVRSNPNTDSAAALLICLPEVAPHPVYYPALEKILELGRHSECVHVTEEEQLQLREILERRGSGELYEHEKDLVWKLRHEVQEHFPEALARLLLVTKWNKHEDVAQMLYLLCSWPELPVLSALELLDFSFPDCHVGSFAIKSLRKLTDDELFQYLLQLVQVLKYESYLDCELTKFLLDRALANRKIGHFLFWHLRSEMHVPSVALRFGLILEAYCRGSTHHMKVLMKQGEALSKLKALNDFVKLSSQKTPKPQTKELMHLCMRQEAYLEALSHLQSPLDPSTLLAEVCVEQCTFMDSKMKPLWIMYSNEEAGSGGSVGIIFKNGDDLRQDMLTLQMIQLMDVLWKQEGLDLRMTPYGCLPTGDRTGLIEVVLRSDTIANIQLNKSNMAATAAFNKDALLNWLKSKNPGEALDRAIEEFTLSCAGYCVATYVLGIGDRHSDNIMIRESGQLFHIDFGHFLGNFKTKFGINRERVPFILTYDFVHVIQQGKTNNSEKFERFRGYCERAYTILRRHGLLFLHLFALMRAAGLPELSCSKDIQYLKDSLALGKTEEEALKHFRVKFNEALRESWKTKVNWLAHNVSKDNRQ
T2 sequence (P27986 whole entry partner): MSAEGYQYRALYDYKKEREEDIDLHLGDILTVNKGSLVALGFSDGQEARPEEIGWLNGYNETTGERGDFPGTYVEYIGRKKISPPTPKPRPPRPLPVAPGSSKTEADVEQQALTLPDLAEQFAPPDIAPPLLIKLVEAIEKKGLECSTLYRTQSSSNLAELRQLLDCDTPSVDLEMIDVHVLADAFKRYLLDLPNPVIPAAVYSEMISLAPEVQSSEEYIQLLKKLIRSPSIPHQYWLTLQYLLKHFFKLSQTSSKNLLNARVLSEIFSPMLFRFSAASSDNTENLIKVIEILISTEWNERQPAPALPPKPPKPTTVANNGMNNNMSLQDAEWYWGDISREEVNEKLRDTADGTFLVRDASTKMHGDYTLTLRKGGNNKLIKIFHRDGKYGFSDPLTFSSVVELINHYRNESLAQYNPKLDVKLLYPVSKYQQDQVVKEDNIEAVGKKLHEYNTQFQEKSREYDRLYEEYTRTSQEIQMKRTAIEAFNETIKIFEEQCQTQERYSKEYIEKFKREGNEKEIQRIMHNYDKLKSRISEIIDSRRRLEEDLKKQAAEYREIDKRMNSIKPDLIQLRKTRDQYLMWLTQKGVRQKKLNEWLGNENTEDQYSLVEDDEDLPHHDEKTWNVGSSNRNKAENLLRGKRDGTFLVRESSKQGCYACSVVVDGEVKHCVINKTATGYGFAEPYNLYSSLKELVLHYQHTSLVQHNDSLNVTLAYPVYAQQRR
T1 sequence (P42338 whole entry): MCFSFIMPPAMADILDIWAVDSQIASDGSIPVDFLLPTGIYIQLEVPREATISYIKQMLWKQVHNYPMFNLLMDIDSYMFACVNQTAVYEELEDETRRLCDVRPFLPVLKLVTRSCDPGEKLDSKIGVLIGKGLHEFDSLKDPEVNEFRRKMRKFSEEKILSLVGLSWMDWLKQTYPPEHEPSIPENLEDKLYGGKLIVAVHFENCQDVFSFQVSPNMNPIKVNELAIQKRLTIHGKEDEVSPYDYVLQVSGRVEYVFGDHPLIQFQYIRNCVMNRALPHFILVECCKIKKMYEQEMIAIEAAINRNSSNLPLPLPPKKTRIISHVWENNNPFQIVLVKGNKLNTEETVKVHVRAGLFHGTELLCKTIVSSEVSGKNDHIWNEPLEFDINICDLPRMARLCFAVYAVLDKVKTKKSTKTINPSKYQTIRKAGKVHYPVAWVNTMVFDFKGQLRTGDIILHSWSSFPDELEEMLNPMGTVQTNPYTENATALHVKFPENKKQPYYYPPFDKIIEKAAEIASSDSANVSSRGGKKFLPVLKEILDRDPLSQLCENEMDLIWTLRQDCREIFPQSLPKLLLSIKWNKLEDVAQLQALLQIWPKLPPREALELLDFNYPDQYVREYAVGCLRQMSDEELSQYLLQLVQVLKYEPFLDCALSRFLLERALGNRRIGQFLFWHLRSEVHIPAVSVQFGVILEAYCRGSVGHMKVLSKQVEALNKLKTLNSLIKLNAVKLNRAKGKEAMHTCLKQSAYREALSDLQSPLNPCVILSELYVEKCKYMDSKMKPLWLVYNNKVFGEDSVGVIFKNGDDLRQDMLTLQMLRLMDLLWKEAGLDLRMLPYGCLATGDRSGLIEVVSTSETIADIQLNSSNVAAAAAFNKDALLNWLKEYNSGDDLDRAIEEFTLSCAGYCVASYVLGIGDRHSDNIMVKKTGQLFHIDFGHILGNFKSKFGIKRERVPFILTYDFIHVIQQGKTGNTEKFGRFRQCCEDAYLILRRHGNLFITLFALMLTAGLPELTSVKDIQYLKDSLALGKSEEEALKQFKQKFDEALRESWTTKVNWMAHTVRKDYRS
T1 sequence (P27986 whole entry partner): as the sequence (P27986 whole entry partner) above
T3 sequence (P48736 whole entry): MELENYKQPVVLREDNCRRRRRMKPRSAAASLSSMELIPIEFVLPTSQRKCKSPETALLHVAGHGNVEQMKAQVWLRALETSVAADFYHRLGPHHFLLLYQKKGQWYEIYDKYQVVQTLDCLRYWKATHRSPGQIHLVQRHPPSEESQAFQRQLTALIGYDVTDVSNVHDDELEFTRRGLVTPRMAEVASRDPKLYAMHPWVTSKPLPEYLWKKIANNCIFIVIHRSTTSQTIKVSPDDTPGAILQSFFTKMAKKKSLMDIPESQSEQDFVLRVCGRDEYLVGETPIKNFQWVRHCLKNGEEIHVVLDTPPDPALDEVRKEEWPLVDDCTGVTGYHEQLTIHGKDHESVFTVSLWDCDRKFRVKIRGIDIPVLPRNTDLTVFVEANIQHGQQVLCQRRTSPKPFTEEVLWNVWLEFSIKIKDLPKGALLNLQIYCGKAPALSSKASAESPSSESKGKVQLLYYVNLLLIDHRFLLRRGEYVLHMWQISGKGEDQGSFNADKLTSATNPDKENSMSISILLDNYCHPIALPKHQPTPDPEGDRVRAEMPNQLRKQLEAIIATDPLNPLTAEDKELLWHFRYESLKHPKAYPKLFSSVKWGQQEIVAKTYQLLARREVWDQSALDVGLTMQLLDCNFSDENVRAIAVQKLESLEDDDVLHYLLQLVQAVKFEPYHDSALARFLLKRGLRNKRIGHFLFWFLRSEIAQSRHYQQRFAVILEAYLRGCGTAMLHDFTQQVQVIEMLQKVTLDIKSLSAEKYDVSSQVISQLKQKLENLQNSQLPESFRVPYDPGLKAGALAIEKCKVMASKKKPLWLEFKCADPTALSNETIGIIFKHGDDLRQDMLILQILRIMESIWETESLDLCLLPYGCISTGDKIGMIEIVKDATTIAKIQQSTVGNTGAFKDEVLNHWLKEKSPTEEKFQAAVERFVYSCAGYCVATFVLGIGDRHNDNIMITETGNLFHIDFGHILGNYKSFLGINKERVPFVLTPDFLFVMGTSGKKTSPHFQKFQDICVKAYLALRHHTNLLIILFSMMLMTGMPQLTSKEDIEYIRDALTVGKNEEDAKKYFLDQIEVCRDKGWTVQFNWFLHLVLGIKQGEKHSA

| IC50 (PI3Kβ; [1]) [µM] | IC50 (PI3Kδ; [1]) [µM] | IC50 (PI3Kγ; [1]) [µM] | IC50 (PI3Kβ; Table 2a, same assay) [µM] | IC50 (PI3Kδ; Table 2a, same assay) [µM] | IC50 (PI3Kγ; Table 2a, same assay) [µM] | IC50 (PI3Kγ) [µM] | SMILES |
| --- | --- | --- | --- | --- | --- | --- | --- |
|  |  |  | 0.043 | 0.05 | 0.39 |  | C[C@H](NC(=O)c1nc(Cl)c(N)nc1N)c1nc2c(F)ccc(Cl)c2c(=O)n1-c1cc[nH]n1 [Compound 277, (S)-3,5-diamino-6-chloro-N-(1-(5-chloro-8-fluoro-4-oxo-3-(1H-pyrazol-3-yl)-3,4-dihydroquinazolin-2-yl)ethyl)pyrazine-2-carboxamide] |
|  |  |  | 0.628 | 0.27 | > 10 |  | C[C@H](Nc1nc(N)nc(C(F)F)c1Cl)c1nc2c(Cl)cc(F)cc2c(=O)n1-c1cc[nH]n1 [Compound 226, (S)-2-(1-((2-amino-5-chloro-6-(difluoromethyl)pyrimidin-4-yl)amino)ethyl)-8-chloro-6-fluoro-3-(1H-pyrazol-3-yl)quinazolin-4(3H)-one] |
|  |  |  | 0.083 | 0.053 | 0.59 |  | C[C@H](NC(=O)c1nc(Cl)c(N)nc1N)c1nc2c(F)ccc(Cl)c2c(=O)n1-c1cn[nH]c1 [Compound 278, (S)-3,5-diamino-6-chloro-N-(1-(5-chloro-8-fluoro-4-oxo-3-(1H-pyrazol-4-yl)-3,4-dihydroquinazolin-2-yl)ethyl)pyrazine-2-carboxamide] |
|  |  |  | 0.003 | 0.001 | 0.16 |  | CCC[C@H](Nc1nc(N)nc(N)c1C#N)c1nc2cccc(Cl)c2c(=O)n1-c1cn[nH]c1 [Compound 249, (S)-2,4-diamino-6-((1-(5-chloro-4-oxo-3-(1H-pyrazol-4-yl)-3,4-dihydroquinazolin-2-yl)butyl)amino)pyrimidine-5-carbonitrile] |
|  |  |  | 0.004 | 0.002 | 0.64 |  | N#Cc1c(N)nc(N)nc1N[C@H](c1nc2cccc(C(F)(F)F)c2c(=O)n1-c1cc[nH]n1)C1CC1 [Compound 207, (S)-2,4-diamino-6-((cyclopropyl(4-oxo-3-(1H-pyrazol-3-yl)-5-(trifluoromethyl)-3,4-dihydroquinazolin-2-yl)methyl)amino)pyrimidine-5-carbonitrile] |
|  |  |  | 0.01 | 0.002 | 0.77 |  | CCC[C@H](Nc1nc(N)nc(N)c1C#N)c1nc2c(Cl)ccc(Cl)c2c(=O)n1-c1cn[nH]c1 [Compound 251, (S)-2,4-diamino-6-((1-(5,8-dichloro-4-oxo-3-(1H-pyrazol-4-yl)-3,4-dihydroquinazolin-2-yl)butyl)amino)pyrimidine-5-carbonitrile] |
|  |  |  | 0.004 | 0.001 | 0.084 |  | C[C@H](Nc1nc(N)nc(N)c1C#N)c1nc2c(Cl)cc(F)cc2c(=O)n1-c1cn[nH]c1 [Compound 266, (S)-2,4-diamino-6-((1-(8-chloro-6-fluoro-4-oxo-3-(1H-pyrazol-4-yl)-3,4-dihydroquinazolin-2-yl)ethyl)amino)pyrimidine-5-carbonitrile] |
|  |  |  | 0.007 | 0.003 | 3.9 |  | CC[C@H](Nc1nc(N)nc(N)c1C#N)c1nc2c(Cl)cc(F)cc2c(=O)n1-c1cc[nH]n1 [Compound 258, (S)-2,4-diamino-6-((1-(8-chloro-6-fluoro-4-oxo-3-(1H-pyrazol-3-yl)-3,4-dihydroquinazolin-2-yl)propyl)amino)pyrimidine-5-carbonitrile] |
|  |  |  | 0.0006 | 0.0003 | 0.082 |  | C[C@H](Nc1nc(N)nc(N)c1C#N)c1nc2cccc(C(F)F)c2c(=O)n1-c1cc[nH]n1 [Compound 211, (S)-2,4-diamino-6-((1-(5-(difluoromethyl)-4-oxo-3-(1H-pyrazol-3-yl)-3,4-dihydroquinazolin-2-yl)ethyl)amino)pyrimidine-5-carbonitrile] |
|  |  |  | 0.21 | 0.02 | > 10 |  | Cc1n[nH]cc1-n1c([C@H](C)Nc2nc(N)nc(N)c2Cl)nc2c(Cl)ccc(Cl)c2c1=O [Compound 218, (S)-5,8-dichloro-2-(1-((2,6-diamino-5-chloropyrimidin-4-yl)amino)ethyl)-3-(3-methyl-1H-pyrazol-4-yl)quinazolin-4(3H)-one] |

The next lines start with the compound.

| SMILES | IC50 (PI3Kβ; [1]) [µM] | IC50 (PI3Kδ; [1]) [µM] | IC50 (PI3Kγ; [1]) [µM] | IC50 (PI3Kβ; Table 2a, same assay) [µM] | IC50 (PI3Kδ; Table 2a, same assay) [µM] | IC50 (PI3Kγ; Table 2a, same assay) [µM] | IC50 (PI3Kγ) [µM] |
| --- | --- | --- | --- | --- | --- | --- | --- |
| CC[C@H](Nc1nc(N)nc(N)c1C#N)c1nc2cccc(Br)c2c(=O)n1-c1cn[nH]c1 [Compound 99, (S)-2,4-diamino-6-((1-(5-bromo-4-oxo-3-(1H-pyrazol-4-yl)-3,4-dihydroquinazolin-2-yl)propyl)amino)pyrimidine-5-carbonitrile] | 0.0008 | 0.001 | 0.093 |  |  |  |  |
| CC[C@H](Nc1nc(N)nc(N)c1C#N)c1nc2cccc(C#N)c2c(=O)n1-c1cn[nH]c1 [Compound 102, (S)-2-(1-((2,6-diamino-5-cyanopyrimidin-4-yl)amino)propyl)-4-oxo-3-(1H-pyrazol-4-yl)-3,4-dihydroquinazoline-5-carbonitrile] | 0.082 | 0.029 | 2.5 |  |  |  |  |
| CC[C@H](Nc1nc(N)nc2[nH]nc(Br)c12)c1nc2c(C#N)cccc2c(=O)n1-c1cc[nH]n1 [Compound 80, (S)-2-(1-((6-amino-3-bromo-1H-pyrazolo[3,4-d]pyrimidin-4-yl)amino)propyl)-4-oxo-3-(1H-pyrazol-3-yl)-3,4-dihydroquinazoline-8-carbonitrile] | 0.022 | 0.035 |  |  |  |  | > 10 |
| C[C@H](Nc1nc(N)nc(N)c1Cl)c1nc2c(C(F)(F)F)cccc2c(=O)n1-c1cc[nH]n1 [Compound 136, (S)-2-(1-((2,6-diamino-5-chloropyrimidin-4-yl)amino)ethyl)-3-(1H-pyrazol-3-yl)-8-(trifluoromethyl)quinazolin-4(3H)-one] |  |  |  | 0.009 | 0.011 | 5.5 |  |
| C[C@H](Nc1nc(C(F)F)nc(N)c1C#N)c1nc2c(Cl)cc(F)cc2c(=O)n1-c1cc[nH]n1 [Compound 198, (S)-4-amino-6-((1-(8-chloro-6-fluoro-4-oxo-3-(1H-pyrazol-3-yl)-3,4-dihydroquinazolin-2-yl)ethyl)amino)-2-(difluoromethyl)pyrimidine-5-carbonitrile] |  |  |  | 0.58 | 0.83 | > 10 |  |
| C[C@H](Nc1nc(N)nc(C(F)F)c1C#N)c1nc2c(C(F)F)cc(F)cc2c(=O)n1-c1cc[nH]n1 [Compound 142, (S)-2-amino-4-(difluoromethyl)-6-((1-(8-(difluoromethyl)-6-fluoro-4-oxo-3-(1H-pyrazol-3-yl)-3,4-dihydroquinazolin-2-yl)ethyl)amino)pyrimidine-5-carbonitrile] |  |  |  | 0.035 | 0.047 | > 10 |  |
| CC[C@H](Nc1ncnc2scnc12)c1nc2cccc(Br)c2c(=O)n1-c1cn[nH]c1 [Compound 100, (S)-5-bromo-3-(1H-pyrazol-4-yl)-2-(1-(thiazolo[5,4-d]pyrimidin-7-ylamino)propyl)quinazolin-4(3H)-one] | 0.022 | 0.004 | 0.28 |  |  |  |  |
| Nc1nc(N)c(Cl)c(N[C@H](c2nc3cccc(C(F)F)c3c(=O)n2-c2cc[nH]n2)C2CCC2)n1 [Compound 132, (S)-2-(cyclobutyl((2,6-diamino-5-chloropyrimidin-4-yl)amino)methyl)-5-(difluoromethyl)-3-(1H-pyrazol-3-yl)quinazolin-4(3H)-one] |  |  |  | 0.075 | 0.042 | > 10 |  |
